Source: patent US7390806B2, “Antibiotics containing borinic acid complexes and methods of use” (Anacor Pharmaceuticals, Inc., priority 2002, dated 2008)
In brackets after ≈: the same amount, converted by molar mass.

These compounds were tested on S. aureus ATCC 29213 (assay: MIC determination, S. aureus ATCC 29213). Settings: Staphylococcus aureus, ATCC29213, Table 1; read-out: MIC S. aureus ATCC 29213.
Type: cell-based, Staphylococcus aureus

`Oc1c(Br)cc(Br)c2cccnc12` [Compound 24] and `N#Cc1ccc(O)c2ncccc12` [Compound 21, 5-cyano-8-hydroxyquinoline] are the same in MIC: 0.5 µg/mL (≈ 1.65 µM) for the first, 0.5 µg/mL (≈ 2.94 µM) for the second.

First: Oc1cccc2nc[nH]c12 [Compound 11, 4-hydroxybenzimidazole]
Second: O=C(O)c1cc(O)c2ccccc2n1 [Compound 31]
The MIC of the first is 8-fold lower: 0.125 µg/mL (≈ 0.932 µM) for the first, 1 µg/mL (≈ 5.29 µM) for the second.

Same assay, conditions: Staphylococcus aureus, ATCC29213, read-out: MIC S. aureus ATCC 29213

With `Nc1ccc2cccc(O)c2n1` [Compound 17] the MIC was 0.25 µg/mL (≈ 1.56 µM).

Same assay, conditions: Table 1

Going from `Oc1cccc2cccnc12` [Compound 42, 8-hydroxyquinoline] to `Oc1ccc(Cl)c2cccnc12` [Compound 13], the “MIC S. aureus ATCC 29213” value falls from 1 micrograms per ml to 0.125 micrograms per ml.

Compared with `CB(Oc1cccc2cccnc12)c1cccs1` [Compound 26, (2-Thienyl)methylborinic acid 8-hydroxyquinoline ester], `Oc1cccc2cccnc12` [Compound 46, 8-hydroxyquinoline] is higher in “MIC S. aureus ATCC 29213” value: 0.5 micrograms per ml for the first, 1 micrograms per ml for the second.

For `Oc1cccc2cccnc12` [Compound 77, 8-hydroxyquinoline], the “MIC S. aureus ATCC 29213” value was 2 micrograms per ml.
In the case of `Oc1cccc2cccnc12` [Compound 32, 8-hydroxyquinoline], the “MIC S. aureus ATCC 29213” value is reported as 1 micrograms per ml.
`Oc1cccc2cccnc12` [Compound 76, 8-hydroxyquinoline] was tested, and the “MIC S. aureus ATCC 29213” value was 2 micrograms per ml.

Each compound was assayed on S. epidermidis ATCC 12228 (assay: MIC determination, S. epidermidis ATCC 12228). Settings: Staphylococcus epidermidis, ATCC12228, Table 1; read-out: MIC S. epidermidis ATCC 12228.
Type: cell-based, Staphylococcus epidermidis

Compared with `Oc1c(Br)cc(Br)c2cccnc12` [Compound 24], `Oc1ccc(Cl)c2cccnc12` [Compound 13] is 8-fold lower in MIC: 8 µg/mL (≈ 26.4 µM) for the first, 1 µg/mL (≈ 5.57 µM) for the second.

`N#Cc1ccc(O)c2ncccc12` [Compound 21, 5-cyano-8-hydroxyquinoline] and `Oc1cccc2nc[nH]c12` [Compound 11, 4-hydroxybenzimidazole] are the same in MIC: 4 µg/mL (≈ 23.5 µM) for the first, 4 µg/mL (≈ 29.8 µM) for the second.

`O=C(O)c1cc(O)c2ccccc2n1` [Compound 31] was tested, and the MIC was 1 µg/mL (≈ 5.29 µM).

Same assay, conditions: Staphylococcus epidermidis, ATCC12228, read-out: MIC S. epidermidis ATCC 12228

Compound `Nc1ccc2cccc(O)c2n1` [Compound 17] has an MIC of 2 µg/mL (≈ 12.5 µM).

Same assay, conditions: Table 1

`Oc1cccc2cccnc12` [Compound 42, 8-hydroxyquinoline] and `CB(Oc1cccc2cccnc12)c1cccs1` [Compound 26, (2-Thienyl)methylborinic acid 8-hydroxyquinoline ester] are the same in “MIC S. epidermidis ATCC 12228” value: 1 micrograms per ml for the first, 1 micrograms per ml for the second.

With `Oc1cccc2cccnc12` [Compound 46, 8-hydroxyquinoline] the “MIC S. epidermidis ATCC 12228” value was 1 micrograms per ml.
With `Oc1cccc2cccnc12` [Compound 77, 8-hydroxyquinoline] the “MIC S. epidermidis ATCC 12228” value was 1 micrograms per ml.
`Oc1cccc2cccnc12` [Compound 32, 8-hydroxyquinoline] was tested, and the “MIC S. epidermidis ATCC 12228” value was 1 micrograms per ml.
`Oc1cccc2cccnc12` [Compound 76, 8-hydroxyquinoline] was tested, and the “MIC S. epidermidis ATCC 12228” value was 1 micrograms per ml.

The compounds below were run on E. faecium CT-26 (assay: MIC determination, E. faecium CT-26). Settings: Enterococcus faecium, CT26, Table 1; read-out: MIC E. faecium CT-26.
Type: cell-based, Enterococcus faecium

Compared with `Oc1c(Br)cc(Br)c2cccnc12` [Compound 24], `Oc1ccc(Cl)c2cccnc12` [Compound 13] is 16-fold lower in MIC: 32 µg/mL (≈ 106 µM) for the first, 2 µg/mL (≈ 11.1 µM) for the second.

`N#Cc1ccc(O)c2ncccc12` [Compound 21, 5-cyano-8-hydroxyquinoline] and `Oc1cccc2nc[nH]c12` [Compound 11, 4-hydroxybenzimidazole] are the same in MIC: 8 µg/mL (≈ 47 µM) for the first, 8 µg/mL (≈ 59.6 µM) for the second.

In the case of `O=C(O)c1cc(O)c2ccccc2n1` [Compound 31], the MIC is reported as 1 µg/mL (≈ 5.29 µM).

Same assay, conditions: Enterococcus faecium, CT26, read-out: MIC E. faecium CT-26

Compound `Nc1ccc2cccc(O)c2n1` [Compound 17] has an MIC of 8 µg/mL (≈ 49.9 µM).

Same assay, conditions: Table 1

Going from `Oc1cccc2cccnc12` [Compound 42, 8-hydroxyquinoline] to `CB(Oc1cccc2cccnc12)c1cccs1` [Compound 26, (2-Thienyl)methylborinic acid 8-hydroxyquinoline ester], the “MIC E. faecium CT-26” value rises from 2 micrograms per ml to 4 micrograms per ml.

`Oc1cccc2cccnc12` [Compound 46, 8-hydroxyquinoline] was tested, and the “MIC E. faecium CT-26” value was 1 micrograms per ml.
For `Oc1cccc2cccnc12` [Compound 77, 8-hydroxyquinoline], the “MIC E. faecium CT-26” value was 4 micrograms per ml.
With `Oc1cccc2cccnc12` [Compound 32, 8-hydroxyquinoline] the “MIC E. faecium CT-26” value was 2 micrograms per ml.
`Oc1cccc2cccnc12` [Compound 76, 8-hydroxyquinoline] was tested, and the “MIC E. faecium CT-26” value was 4 micrograms per ml.

These compounds were tested on M. catarrhalis ATCC 25238 (assay: MIC determination, M. catarrhalis ATCC 25238). Settings: Moraxella catarrhalis, ATCC25238, Table 1; read-out: MIC M. catarrhalis ATCC 25238.
Type: cell-based

Going from `Oc1c(Br)cc(Br)c2cccnc12` [Compound 24] to `Oc1ccc(Cl)c2cccnc12` [Compound 13], the MIC rises from 0.12 µg/mL (≈ 0.396 µM) to 0.25 µg/mL (≈ 1.39 µM) (2.1-fold).

Work on `N#Cc1ccc(O)c2ncccc12` [Compound 21, 5-cyano-8-hydroxyquinoline] yielded an MIC of 0.25 µg/mL (≈ 1.47 µM).

Same assay, conditions: Moraxella catarrhalis, ATCC25238, read-out: MIC M. catarrhalis ATCC 25238

In the case of `Nc1ccc2cccc(O)c2n1` [Compound 17], the MIC is reported as 2 µg/mL (≈ 12.5 µM).

Same assay, conditions: Table 1

`Oc1cccc2cccnc12` [Compound 42, 8-hydroxyquinoline] was tested, and the “MIC M. catarrhalis ATCC 25238” value was 1 micrograms per ml.
`Oc1cccc2cccnc12` [Compound 46, 8-hydroxyquinoline] was tested, and the “MIC M. catarrhalis ATCC 25238” value was 1 micrograms per ml.
For `Oc1cccc2cccnc12` [Compound 77, 8-hydroxyquinoline], the “MIC M. catarrhalis ATCC 25238” value was 2 micrograms per ml.
With `Oc1cccc2cccnc12` [Compound 32, 8-hydroxyquinoline] the “MIC M. catarrhalis ATCC 25238” value was 2 micrograms per ml.

Each compound was assayed on E. faecalis ATCC 29212 (assay: MIC determination, E. faecalis ATCC 29212). Settings: Enterococcus faecalis, ATCC29212, Table 1; read-out: MIC E. faecalis ATCC 29212.
Type: cell-based, Enterococcus faecalis

Compared with `Oc1c(Br)cc(Br)c2cccnc12` [Compound 24], `N#Cc1ccc(O)c2ncccc12` [Compound 21, 5-cyano-8-hydroxyquinoline] is 4-fold lower in MIC: 64 µg/mL (≈ 211 µM) for the first, 16 µg/mL (≈ 94 µM) for the second.

First: Oc1cccc2nc[nH]c12 [Compound 11, 4-hydroxybenzimidazole]
Second: O=C(O)c1cc(O)c2ccccc2n1 [Compound 31]
The MIC of the first is 4-fold higher: 8 µg/mL (≈ 59.6 µM) for the first, 2 µg/mL (≈ 10.6 µM) for the second.

Same assay, conditions: Enterococcus faecalis, ATCC29212, read-out: MIC E. faecalis ATCC 29212

`Nc1ccc2cccc(O)c2n1` [Compound 17] gave an MIC of 8 µg/mL (≈ 49.9 µM).

Same assay, conditions: Table 1

First: Oc1cccc2cccnc12 [Compound 42, 8-hydroxyquinoline]
Second: Oc1ccc(Cl)c2cccnc12 [Compound 13]
The “MIC E. faecalis ATCC 29212” value of the first is lower: 8 micrograms per ml for the first, 64 micrograms per ml for the second.

`CB(Oc1cccc2cccnc12)c1cccs1` [Compound 26, (2-Thienyl)methylborinic acid 8-hydroxyquinoline ester] and `Oc1cccc2cccnc12` [Compound 46, 8-hydroxyquinoline] are the same in “MIC E. faecalis ATCC 29212” value: 4 micrograms per ml for the first, 4 micrograms per ml for the second.

With `Oc1cccc2cccnc12` [Compound 77, 8-hydroxyquinoline] the “MIC E. faecalis ATCC 29212” value was 8 micrograms per ml.
In the case of `Oc1cccc2cccnc12` [Compound 32, 8-hydroxyquinoline], the “MIC E. faecalis ATCC 29212” value is reported as 16 micrograms per ml.
`Oc1cccc2cccnc12` [Compound 76, 8-hydroxyquinoline] was tested, and the “MIC E. faecalis ATCC 29212” value was 8 micrograms per ml.

These compounds were tested on S. pneumoniae ATCC 6301 (assay: MIC determination, S. pneumoniae ATCC 6301). Settings: Streptococcus pneumoniae, ATCC6301, Table 1; read-out: MIC S. pneumoniae ATCC 6301.
Type: cell-based, Streptococcus pneumoniae

First: Oc1c(Br)cc(Br)c2cccnc12 [Compound 24]
Second: Oc1ccc(Cl)c2cccnc12 [Compound 13]
The MIC of the first is 8-fold higher: 8 µg/mL (≈ 26.4 µM) for the first, 1 µg/mL (≈ 5.57 µM) for the second.

`N#Cc1ccc(O)c2ncccc12` [Compound 21, 5-cyano-8-hydroxyquinoline] gave an MIC of 2 µg/mL (≈ 11.8 µM).

Same assay, conditions: Streptococcus pneumoniae, ATCC6301, read-out: MIC S. pneumoniae ATCC 6301

For `Nc1ccc2cccc(O)c2n1` [Compound 17], the MIC was 2 µg/mL (≈ 12.5 µM).

Same assay, conditions: Table 1

In the case of `Oc1cccc2cccnc12` [Compound 42, 8-hydroxyquinoline], the “MIC S. pneumoniae ATCC 6301” value is reported as 1 micrograms per ml.
For `Oc1cccc2cccnc12` [Compound 46, 8-hydroxyquinoline], the “MIC S. pneumoniae ATCC 6301” value was 1 micrograms per ml.
`Oc1cccc2cccnc12` [Compound 77, 8-hydroxyquinoline] was tested, and the “MIC S. pneumoniae ATCC 6301” value was 1 micrograms per ml.
For `Oc1cccc2cccnc12` [Compound 32, 8-hydroxyquinoline], the “MIC S. pneumoniae ATCC 6301” value was 1 micrograms per ml.
